Data taken from publication PMC6562610, “Inhibition of Hedgehog Signaling in Fibroblasts, Pancreatic, and Lung Tumor Cells by Oxy186, an Oxysterol Analogue with Drug-Like Properties” (Cells, 2019).

Tests used:
[1] = test system: Gli1 expression in A549 cells; assay: Inhibition of Gli1 expression in A549 cells, Q-RT-PCR; format: cell-based, human; settings: 10 µM, 72 h
From the text: (§1) NIH3T3-E1 fibroblasts were obtained from ATCC (Manassas, VA) and cultured, as previously described. CAPAN-1 and PANC-1 human pancreatic cancer cells were obtained from ATCC and cultured in Dulbecco’s Modified Eagle Medium (DMEM) containing 10% heat-inactivated fetal bovine serum (FBS) (Hyclone Laboratories, Logan, UT, USA) and antibiotics, as previously described. The human lung cancer cell lines A549 and H2030 were obtained from ATCC and cultured in RPMI-1640 containing 10% FBS. The human hepatoma cell line HepG2 was obtained from ATCC and cultured in DMEM containing 10% FBS. Mouse embryonic fibroblasts (MEFs) from suppressor of fused (Sufu) null mice (Sufu^−/−) were provided by Dr. Philip Beachy of Stanford University and cultured in DMEM containing 10% FBS. Gant61, SB431542 and vismodegib (GDC0449) were obtained from Cayman Chemical, HPI-1 was obtained from Abcam. For experiments, cells were treated in a medium containing 5% FBS.
(§2) Total RNA was extracted with the RNeasy Plus Mini Kit from Qiagen, according to the manufacturer’s instructions. One microgram of RNA was reverse-transcribed using an iScript Reverse Transcription Supermix from Bio-Rad, to make single-stranded cDNA. The cDNAs were then mixed with Qi SYBR Green Supermix (Bio-Rad, Hercules, CA, USA) for quantitative RT-PCR assay using a Bio-Rad I-cycler IQ quantitative thermocycler. All PCR samples were prepared in triplicate wells in a 96-well plate. […] Fold changes in gene expression were calculated using the ΔΔCt method. […]
(§3) Figure 4 Inhibition of Gli and Shh expression in (a) PDAC (PANC-1) and (b,c) human lung cancer cells (A549 and H2030, respectively) by Oxy186. Cells were treated with the compounds as indicated in DMEM or RPMI 1640 containing 5% FBS for (a) 48 or (b,c) 72 hours, then RNA was extracted and analyzed by Q-RT-PCR for the expression of Gli1 and normalized to GAPDH expression. (d) CAPAN-1 cells were treated with the compounds, as indicated, in DMEM containing 5% FBS for 72 h, then RNA was extracted and analyzed by Q-RT-PCR for the expression of Shh and normalized to GAPDH expression. […]

[2] = test system: Gli1 expression in PANC-1 cells; assay: Inhibition of baseline Gli1 expression in PANC-1 cells, Q-RT-PCR; format: cell-based, human; settings: 10 µM, 48 h
From the text: as §1, §2, §3

`C[C@]12CC[C@H](O)C[C@@H]1CC[C@@H]1[C@@H]2CC[C@@]2(C)[C@H]1CC[C@@H]2[C@](C)(O)CCc1ccc(F)cc1` [Oxy186, (3S,5S,8R,9S,10S,13S,14S,17S)-17-((R)-4-(4-fluorophenyl)-2-hydroxybutan-2-yl)-10,13-dimethylhexadecahydro-1H-cyclopenta[a]phenanthren-3-ol] was tested, and the “Inhibition of expression of Gli1” value [1] was “significantly inhibited” and the “Inhibition of high baseline expression of Gli1” value [2] was “significantly inhibited”.
